These results are taken from patent US8524659B2, “RNA virus-derived peptides with modified side chains” (National Taiwan University, priority 2011, dated 2013).

SMILES strings stand for the structures.

In one series the test system is Jurkat cells. The experiment in a line: MTT assay for determining cell survival. Type of series: cell-based. Conditions: 7 μM and 30 μM peptide, 4 hours, 37° C., FIG. 4. The method, then: The cells were grown to appropriate cell density (roughly 2×10^6 cells/mL) and transferred into new media one day before performing the experiment. For each assay, 8×10^5 cells as determined by a hemocytometer were added into an eppendorf. The cells were centrifuged at 2200 rpm for 5 minutes. The supernatant was removed by suction. Then 200 μL of 7 μM or 30 μM XaaTat peptide was added. The cells were incubated for 4 hours at 37° C. and then centrifuged at 2200 rpm for 5 minutes. The cells were washed with RPMI medium twice, and then 200 μL of 0.5 mg/mL MTT in serum free RPMI buffer was added and incubated at 37° C. for 3.5 hours. The cells were then centrifuged at 4000 rpm for 5 minutes. The supernatant was then transferred to two wells (100 μL each) of a 96-well plate. Then 400 μL DMSO was added to the cells in the assaying eppendorf. The eppendorf was then vortexed for 5 minutes to solubilize the MTT purple crystals, and centrifuged at 2200 rpm for 5 minutes. Then the supernatant was transferred to 4 wells (100 μL each) of the 96-well plate for analysis. The absorbance at 570 was determined for each well using a microplate reader with the absorbance at 655 nm used for background correction. A standard curve was generated using different number of cells (8×10^5, 4×10^5 and 2×10^5). The absorbance for each sample for each peptide at each concentration was then correlated to the number of live cells based on the standard curve.
On the technique in general: Formazan colour is commonly taken as a measure of viable cells.

Series [1] concerns the target HIV TAR RNA. The experiment in a line: Fluorescence anisotropy binding of Tat peptides to fluorescein-labeled TAR RNA. The method, then:
The binding affinity of XaaTat peptides (Xaa=Agh, Arg and Agb) for TAR RNA was measured by fluorescence anisotropy using a Varian Cary Eclipse fluorescence spectrophotometer. The anisotropy (r) was calculated using the following equation: […]
where Ivv, Ivh, Ihh, Ihv are the fluorescence intensities with the excitation polarizer and emission polarizer is oriented perpendicular (Ivh and Ihv) and parallel (Ivv and Ihh) to the direction of the polarized excitation. The fluorescein-labeled TAR RNA (F-TAR-RNA) was excited at 490 nm and the polarized emissions were monitored at 512 nm. The slits were set at 10 nm for both excitation and emission. The integration time was 20 seconds. All data were measured in a Sub-Micro (Starna Cell, Inc.) with a starting volume of 160 μL. Each addition (1 μL) of XaaTat was equilibrated for two minutes before the fluorescence signal was recorded. All experiments were performed at room temperature in TKT buffer (TKT: 50 mM Tris-HCl, pH 7.4, 20 mM KCl and 0.02% Tween20). The initial concentration of F-TAR-RNA was 25 nM. The TKT solution and peptide stock solution were both equilibrated at room temperature more than 20 minutes before the experiment. The experiment was repeated three times independently. For every single point, three measurements were performed and the average value was used for deriving the apparent (apparent KD). The apparent for the peptide-RNA complex was derived by fitting the data assuming a 1:1 peptide-RNA stoichiometry. The fitting was performed using Kaleidagraph 3.52. (Synergy Software, CA).
In general terms: Fluorescence polarisation rises when a labelled molecule tumbles more slowly, as on binding a larger partner.

Series [2] concerns the target HIV TAR RNA. The experiment in a line: Gel shift assay (EMSA) with fluorescein-labeled TAR RNA in the presence of poly(dI-dC). Type of series: binding. The method, then:
The fluorescein-labeled TAR RNA (F-TAR-RNA) was purchased from Sigma. F-TAR-RNA was dissolved in diethyl pyrocarbonate treated H2O to give a 50 μM solution. Binding assays were performed at room temperature. Peptide and RNA were incubated in pH 7.4 buffer (10 μL) containing Tris-HCl (50 mM), KCl (50 mM), poly-dIdC (10 μg/mL), 2% glycerol, and Triton X-100 (0.05%). The F-TAR-RNA concentration was 100 nM. The samples were analyzed by loading into 12% native polyacrylamide gels in […] and electrophoresis was performed with 140 V at room temperature. Dried gels were scanned by the Typhoon TRIO+ Variable Mode Imager. Bands corresponding to the free and bound RNA were quantified using ImageQuant software. The apparent dissociation constants were globally derived from the quantified data assuming a 1:1 binding stoichiometry.
(A gel shift assay detects complexes by their altered migration in electrophoresis.)

As for `CC(=O)N[C@@H](Cc1ccc(O)cc1)C(=O)NCC(=O)N[C@@H](CCNC(=N)N)C(=O)N[C@@H](CCCCN)C(=O)N[C@@H](CCCCN)C(=O)N[C@@H](CCNC(=N)N)C(=O)N[C@@H](CCNC(=N)N)C(=O)N[C@@H](CCC(N)=O)C(=O)N[C@@H](CCNC(=N)N)C(=O)N[C@@H](CCNC(=N)N)C(=O)N[C@@H](CCNC(=N)N)C(N)=O` [AgbTat, Ac-Tyr-Gly-Agb-Lys-Lys-Agb-Agb-Gln-Agb-Agb-Agb-NH2], the “Cytotoxicity (cell survival)” value with Jurkat cells is “minimal cytotoxicity”.

In the case of `CC(=O)N[C@@H](Cc1ccc(O)cc1)C(=O)NCC(=O)N[C@@H](CCCNC(=N)N)C(=O)N[C@@H](CCCCN)C(=O)N[C@@H](CCCCN)C(=O)N[C@@H](CCCNC(=N)N)C(=O)N[C@@H](CCCNC(=N)N)C(=O)N[C@@H](CCC(N)=O)C(=O)N[C@@H](CCCNC(=N)N)C(=O)N[C@@H](CCCNC(=N)N)C(=O)N[C@@H](CCCNC(=N)N)C(N)=O` [ArgTat, Ac-Tyr-Gly-Arg-Lys-Lys-Arg-Arg-Gln-Arg-Arg-Arg-NH2, reference compound], the Kd at HIV TAR RNA [1] (Table 2, read-out: KD, binding affinity of Tat-peptide and TAR RNA by fluorescence anisotropy assay) turned out to be 25 ± 3 nM; on HIV TAR RNA [1] (fluorescence anisotropy, 25 nM fluorescein-labeled HIV TAR RNA, absence of poly(dI-dC), 1:1 stoichiometry, read-out: Apparent KD HIV TAR RNA), 25 ± 3 nM; at HIV TAR RNA [2] (EMSA, 100 nM fluorescein-labeled HIV TAR RNA, 10 μg/mL poly(dI-dC), 1:1 stoichiometry, read-out: Apparent KD HIV TAR RNA with poly(dI-dC)), 67 ± 19 nM; at HIV TAR RNA [2] (in the presence of 10 μg/mL poly(dI-dC), FIG. 9, read-out: KD of peptide and TAR-RNA by gel shift assay), 67 ± 19 nM; on HIV TAR RNA [2] (in the presence of poly(dI-dC) at 25° C., Table 3, read-out: KD, dissociation constant of Tat-peptide and TAR RNA by gel shift assay) it was 67 ± 19 nM. Besides, the “Effect of poly(dI-dC) on binding affinity for TAR RNA (specificity)” value in the series on HIV TAR RNA [2] (comparison of absence and presence of poly(dI-dC), Table 1) is “somewhat affected”. The “Cytotoxicity (cell survival)” value in the series with Jurkat cells was “minimal cytotoxicity”.

In the case of `CC(=O)N[C@@H](Cc1ccc(O)cc1)C(=O)NCC(=O)N[C@@H](CCCCNC(=N)N)C(=O)N[C@@H](CCCCN)C(=O)N[C@@H](CCCCN)C(=O)N[C@@H](CCCCNC(=N)N)C(=O)N[C@@H](CCCCNC(=N)N)C(=O)N[C@@H](CCC(N)=O)C(=O)N[C@@H](CCCCNC(=N)N)C(=O)N[C@@H](CCCCNC(=N)N)C(=O)N[C@@H](CCCCNC(=N)N)C(N)=O` [AghTat, Ac-Tyr-Gly-Agh-Lys-Lys-Agh-Agh-Gln-Agh-Agh-Agh-NH2], in the series with Jurkat cells, the “Cytotoxicity (cell survival)” value is “minimal cytotoxicity”.
